The record followed here is patent US7153851B2, “10-(3-cyclopropylaminomethyl-1-pyrrolidinyl)pyridobenzoxazinecarboxylic acid derivative effective against resistant bacterium” (Kyorin Pharmaceutical Co., Ltd., priority 2002, dated 2006).

Holding throughout (test): In vitro antibacterial activity (MIC), agar dilution method according to NCCLS
What all share (format): cell-based
Background: In agar dilution, organisms are placed on agar that contains the substance at set levels.

Experiment [1] relates to S. aureus MR5867 (methicillin-resistant S. aureus). The following applies: Muller-Hinton agar medium. How it is done:
(§1) The in vitro antibacterial activity (as measured by the minimum inhibitory concentration (MIC)) was determined for each of the compounds of the present invention by the agar dilution method according to NCCLS (National Committee for Clinical Laboratory Standard (1997), Methods for Dilution Antibacterial Susceptibility Tests for Bacteria that grow Aerobically-Forth Edition: Approved Standard m7-A4. NCCLS, Villanova, Pa.), which involved the use of Muller-Hinton agar medium.

Experiment [2] deals with S. aureus MS16401 (quinolone-resistant S. aureus). The following applies: Muller-Hinton agar medium. As for the experimental part: as §1
A further experiment relates to S. aureus Smith. The following applies: Muller-Hinton agar medium. How it is done:
as §1

A further experiment has as its system S. pneumoniae Type III. The following applies: Muller-Hinton agar medium containing 5% defibrinated equine blood.
A further experiment deals with E. faecalis IID682. Also on record: unit not given here. The note with it: Muller-Hinton agar medium containing 5% defibrinated equine blood.

≈ marks a conversion by molar mass, not a printed value.

As to `C[C@@H]1CN(c2c(F)cc3c(=O)c(C(=O)O)cn4c3c2OC[C@@H]4CF)C[C@@H]1CNC1CC1` [Example 18, (3R)-10-[(3S,4S)-3-cyclopropylaminomethyl-4-methyl-1-pyrrolidinyl]-9-fluoro-3-fluoromethyl-2,3-dihydro-7-oxo-7H-pyrido[1,2,3-d,e][1,4]benzoxazine-6-carboxylic acid], the MIC was determined as 0.016 in experiment [1]; 63 µg/mL (≈ 0.145 mM) in experiment [2]; 0.008 against S. aureus Smith; 0.016 against S. pneumoniae Type III; 0.063 in the experiment on E. faecalis IID682.

Regarding `CC(=O)OC[C@@H]1COc2c(N3CC[C@@H](CNC4CC4)C3)c(F)cc3c(=O)c(C(=O)O)cn1c23` [Example 5, (3S)-3-acetoxymethyl-10-[(3S)-3-cyclopropylaminomethyl-1-pyrrolidinyl]-9-fluoro-2,3-dihydro-7-oxo-7H-pyrido[1,2,3-d,e][1,4]benzoxazine-6-carboxylic acid], the MIC in experiment [1] stood at 0.25; in experiment [2], 4000 µg/mL (≈ 8.71 mM); in the experiment on S. aureus Smith, 0.25; against S. pneumoniae Type III, 0.125; in the experiment with E. faecalis IID682, 0.25.
